US12084431B2, “Pharmaceutical salts of pyrimidine derivatives and method of treating disorders” (ARIAD Pharmaceuticals, Inc., priority 2018, dated 2024)

Columns and labels:
[1] = Vapour sorption analysis (GVS, hygroscopicity); type: physicochemical; conditions: % uptake at 90% RH
Method: Approximately 10 mg of the sample was placed into a mesh vapor sorption balance pan and loaded into an IGASorp Moisture Sorption Analyzer balance by Hiden Analytical. The sample was subjected to a ramping profile from 40 to 90% relative humidity (RH) at 10% increments to 90% RH, maintaining the sample at each step until a stable weight had been achieved (98% step completion). After completion of the sorption cycle, the sample was dried using the same procedure (initially from 90% RH to 0% RH and finally taken back to the starting point of 40% RH). The sorption/desorption profiles were then repeated to give a double-cycle plot. The weight changes during the sorption/desorption cycles were plotted, allowing for the hygroscopic nature of the sample to be determined.

[2] = Stability stress testing (ambient light, 40° C./75% RH, 80° C., 7 days; XRPD and HPLC purity); type: physicochemical; conditions: for Purity, 40° C./75% RH / Purity, 80° C. / Purity, Ambient light: HPLC purity after 7 days, open vial; for Purity, Ambient light: room temperature; for XRPD after storage: 7 days; for Input purity: HPLC purity before stress storage; for Chemical Stability: summary in Table 17
Method: Approximately 5 mg of the appropriate samples were placed into 2 mL clear glass vials and the vials were all stored open under the conditions of ambient light, 40° C./75% RH, and 80° C. for 7 days, respectively. The ambient light sample was left open on the bench at room temperature. The 80° C. sample was placed open into an 80° C. oven.

[3] = Thermodynamic aqueous solubility studies (de-ionized water, 24 h, HPLC concentration, filtrate pH, XRPD of solid); conditions: for solubility at 24 h: de-ionized water, pH 6.97, water, thermodynamic from solid; for pH at Saturation: pH of filtrate after 24 h slurry in de-ionized water (pH 6.97), ambient temperature
Method: The resulting solid material was isolated by centrifugation and analyzed by XRPD, while the filtrate was analyzed by HPLC for concentration determination. The pH of the resulting filtrate was also determined.

[4] = test system: advanced NSCLC (EGFR exon 20 insertions); experiment: Phase 1/2 study, antitumor activity / disease assessment by RECIST v1.1; type: in vivo, human; conditions: 160 mg QD
Method: 52 patients were enrolled as of 30 Jan. 2018.
Disease stabilization started to be reported at the 40 mg QD cohort. Disease assessments for patients who had at least one disease assessment following treatment with Compound (A) are shown in Table 21. All patients who responded have EGFR exon 20 insertion mutations and had previously been treated with platinum-based chemotherapy, EGFR TKIs, or PD-1 inhibitors.

[5] = Phase 1/2 study, safety (adverse events, dose limiting toxicities, MTD); conditions: human, in vivo
Method: Patients with advanced NSCLC refractory to standard therapy received daily oral doses (5-120 mg) of Compound (A) in the dose-escalation phase. Compound (A) was provided as polymorphic Form-I of the succinate salt of Compound (A). Compound (A) was formulated as a drug-in-capsule with no excipients and administered orally. Preliminary antitumor activity (by RECIST v1.1), safety and pharmacokinetics are reported for patients receiving at least one dose.
As part of the same phase ½ study as described in Example 12, a dose escalation study was performed. […] 2018.
The phase 2 portion of the study was initiated to expand the study in two 160 mg QD cohorts (EGFR exon 20 mutant NSCLC patients with or without brain metastases) and continue to enroll more patients in the 120 mg cohort.

[6] = all storage conditions (ambient light, 40° C./75% RH, 80° C.)
[7] = Solubility in Water, de-ionized water (pH 6.97), slurry shaken at ambient temperature for 24 h, filtrate by HPLC, salts of Compound (A)
[8] = other 2 conditions (40° C./75% RH and 80° C.)
[9] = number of the 26 patients in efficacy analysis

Compound | GVS (Hygroscopicity) [1] | Purity, 40° C./75% RH [2] | Purity, 80° C. [2] | Purity, Ambient light ([2]; ambient light) | pH at Saturation [3] | XRPD after storage [2, 6] | Input purity [2] | Chemical Stability [2] | solubility at 24 h [3, 7] [µg/mL] | XRPD after storage ([2]; ambient light) | other results
C=CC(=O)Nc1cc(Nc2ncc(C(=O)OC(C)C)c(-c3cn(C)c4ccccc34)n2)c(OC)cc1N(C)CCN(C)C [Free Base, isopropyl 2-((5-acrylamido-4-((2-(dimethylamino)ethyl) (methyl)amino)-2-methoxyphenyl)amino)-4-(1-methyl-1H-indol-3-yl)pyrimidine-5-carboxylate] | 0.3% | 99.5 | 99.5 | 99.5 | 7.81 |  |  |  |  |  | solubility at 24 h [3]: < 10 µg/mL
C=CC(=O)Nc1cc(Nc2ncc(C(=O)OC(C)C)c(-c3cn(C)c4ccccc34)n2)c(OC)cc1N(C)CCN(C)C.O=C(O)/C=C/C(=O)O [Fumarate, isopropyl 2-((5-acrylamido-4-((2-(dimethylamino)ethyl) (methyl)amino)-2-methoxyphenyl)amino)-4-(1-methyl-1H-indol-3-yl)pyrimidine-5-carboxylate fumarate] | 2.0% | 99.5 | 99.5 | 99.5 | 3.98 | No change under all storage | 99.7 | Stable | 100 |  | 
Br.C=CC(=O)Nc1cc(Nc2ncc(C(=O)OC(C)C)c(-c3cn(C)c4ccccc34)n2)c(OC)cc1N(C)CCN(C)C [HBr, isopropyl 2-((5-acrylamido-4-((2-(dimethylamino)ethyl) (methyl)amino)-2-methoxyphenyl)amino)-4-(1-methyl-1H-indol-3-yl)pyrimidine-5-carboxylate hydrobromide] | 0.6% | 99.6 | 99.5 | 99.6 | 6.30 | No change under all storage | 99.7 | Stable | 100 |  | 
C=CC(=O)Nc1cc(Nc2ncc(C(=O)OC(C)C)c(-c3cn(C)c4ccccc34)n2)c(OC)cc1N(C)CCN(C)C.Cl [HCl, isopropyl 2-((5-acrylamido-4-((2-(dimethylamino)ethyl) (methyl)amino)-2-methoxyphenyl)amino)-4-(1-methyl-1H-indol-3-yl)pyrimidine-5-carboxylate hydrochloride] | 10.% | 74.5 | 91.3 | 95.1 | 6.47 |  | 99.0 | Degradation | 5800 | No change at ambient light; | XRPD after storage [2, 8]: changes observed in other 2
C=CC(=O)Nc1cc(Nc2ncc(C(=O)OC(C)C)c(-c3cn(C)c4ccccc34)n2)c(OC)cc1N(C)CCN(C)C.CS(=O)(=O)O [Mesylate, isopropyl 2-((5-acrylamido-4-((2-(dimethylamino)ethyl) (methyl)amino)-2-methoxyphenyl)amino)-4-(1-methyl-1H-indol-3-yl)pyrimidine-5-carboxylate mesylate] | Drying Form | 99.6 | 99.6 | 99.6 | 2.90 |  | 99.7 | Stable | > 70000 | No change at ambient light; | 
C=CC(=O)Nc1cc(Nc2ncc(C(=O)OC(C)C)c(-c3cn(C)c4ccccc34)n2)c(OC)cc1N(C)CCN(C)C.O=C(O)C(=O)O [Oxalate, isopropyl 2-((5-acrylamido-4-((2-(dimethylamino)ethyl) (methyl)amino)-2-methoxyphenyl)amino)-4-(1-methyl-1H-indol-3-yl)pyrimidine-5-carboxylate oxalate] | 2.0% | 99.6 | 99.6 | 99.6 | 3.00 |  | 99.7 | Stable | 6800 | No change at ambient light; | XRPD after storage [2, 8]: minor changes observed in
C=CC(=O)Nc1cc(Nc2ncc(C(=O)OC(C)C)c(-c3cn(C)c4ccccc34)n2)c(OC)cc1N(C)CCN(C)C [Succinate, isopropyl 2-((5-acrylamido-4-((2-(dimethylamino)ethyl) (methyl)amino)-2-methoxyphenyl)amino)-4-(1-methyl-1H-indol-3-yl)pyrimidine-5-carboxylate succinate] |  |  |  |  |  | No change under all storage | 99.7 | Stable | 1900 |  | GVS (Hygroscopicity) ([1]; succinate): 1.3%; Purity, 40° C./75% RH ([2]; succinate): 99.6; Purity, 80° C. ([2]; succinate): 99.6; Purity, Ambient light ([2]; ambient light, succinate): 99.6; overall response rate (ORR) (best response) ([4]; 26 patients with EGFR exon 20 insertion mutations, 95% CI: 33.37%, 73.41%): 53.8%; disease control rate (DCR) ([4]; 26 patients with EGFR exon 20 insertion mutations, 95% CI: 69.85%, 97.55%): 88.5%; confirmed partial response (PR) [4, 9]: 7; unconfirmed PR awaiting confirmation [4, 9]: 6; patients with any TEAE leading to treatment discontinuation [5]: 18.8%; patients with at least 1 Grade≥3 TEAE [5]: 58.4%; patients with at least 1 Grade≥3 TRAE [5]: 29.7%; patients with at least 1 TEAE [5]: 98.0%; patients with at least 1 TRAE [5]: 91.1%; patients with at least 1 treatment-emergent SAE [5]: 35.6%; patients with at least 1 treatment-related SAE [5]: 10.9%; pH at Saturation ([3]; succinate): 5.00
C=CC(=O)Nc1cc(Nc2ncc(C(=O)OC(C)C)c(-c3cn(C)c4ccccc34)n2)c(OC)cc1N(C)CCN(C)C.O=S(=O)(O)O [Sulfate, isopropyl 2-((5-acrylamido-4-((2-(dimethylamino)ethyl) (methyl)amino)-2-methoxyphenyl)amino)-4-(1-methyl-1H-indol-3-yl)pyrimidine-5-carboxylate sulfate] | 11% | 96.2 | 94.9 | 98.6 | 2.19 |  | 98.3 | Degradation |  | No change at ambient light; | solubility at 24 h [3]: > 240000 µg/mL
isopropyl 2-((5-acrylamido-4-((2-(dimethylamino)ethyl) (methyl)amino)-2-methoxyphenyl)amino)-4-(1-methyl-1H-indol-3-yl)pyrimidine-5-carboxylate hippurate | 0.2% |  | 99.6 | 99.6 |  | No change under all storage | 99.7 | Stable |  |  | 
